Like-named read-outs stand apart in the source and are kept apart here.
What was measured:
[1] = target: 5-HT1B receptor (Homo sapiens (Human), UniProt P28222); assay: cAMP accumulation agonist assay at 5-HT1B; assay type: cell-based
Description: Functional Assay at 5-HT1B. Agonist activity at 5-HT1B was determined using a cAMP accumulation protocol at WuXi AppTec (Hong Kong) Limited according to their standard protocols. Briefly, stably transfected cells were plated in an OptiPlate-384 well plate, incubated at RT for 60 mins, and cAMP standard solution (800 nM, 10 μL) was added to the blank well. Then, 10 μL detection reagent was added to each well, the plate incubated for 60 mins at RT, and the plate read using EnVision.

[2] = target: 5-HT1A receptor (Homo sapiens (Human), UniProt P08908); assay: FLIPR Ca^2+ flux agonist assay at 5-HT1A; assay type: cell-based; details: CHO cells
Description: (§1) Functional Assays at 5-HT2A, 5-HT2B, and 5-HT1A. Agonist activity at 5-HT2A, 5-HT2B, and 5-HT1A receptors was determined using a FLIPR Ca^2+ flux assay at WuXi AppTec (Hong Kong) Limited according to their standard protocols. Briefly, stably transfected cells expressing the receptor of interest (HEK293 for 5-HT2A and 5-HT2B; CHO cells for 5-HT1A) were grown and plated in a 384 well plate and incubated at 37° C. and 5% CO2 overnight. A solution of 250 mM probenecid in 1 mL FLIPR assay buffer was prepared fresh. This was combined with a fluorescent dye (Fluo-4 Direct™) to make a final assay concentration of 2.5 mM. […] The fluorescent dye was then added to the assay plate along with assay buffer to a final volume of 40 μL. The cell plate was incubated for 50 min at 37° C. and 5% CO2 and placed into the FLIPR Tetra along with the compound plate. 10p L of references and compounds were then transferred from the compound plate into the cell plate and the fluorescent signal was read.

[3] = Metabolic stability in human liver microsomes (HLM); assay type: in vitro ADME; details: for half-life at 1 μM: both sexes, human, pooled human liver microsomes, pH 7.4, NADPH
Excerpt: HLM Stability. Pooled HLM from adult male and female donors (Corning 452117) were used.

[4] = target: 5-HT2B receptor (Homo sapiens (Human), UniProt P41595); assay: FLIPR Ca^2+ flux agonist assay at 5-HT2B; assay type: cell-based; details: HEK293
Chain of 5-HT2B receptor (P41595 whole entry, looked up): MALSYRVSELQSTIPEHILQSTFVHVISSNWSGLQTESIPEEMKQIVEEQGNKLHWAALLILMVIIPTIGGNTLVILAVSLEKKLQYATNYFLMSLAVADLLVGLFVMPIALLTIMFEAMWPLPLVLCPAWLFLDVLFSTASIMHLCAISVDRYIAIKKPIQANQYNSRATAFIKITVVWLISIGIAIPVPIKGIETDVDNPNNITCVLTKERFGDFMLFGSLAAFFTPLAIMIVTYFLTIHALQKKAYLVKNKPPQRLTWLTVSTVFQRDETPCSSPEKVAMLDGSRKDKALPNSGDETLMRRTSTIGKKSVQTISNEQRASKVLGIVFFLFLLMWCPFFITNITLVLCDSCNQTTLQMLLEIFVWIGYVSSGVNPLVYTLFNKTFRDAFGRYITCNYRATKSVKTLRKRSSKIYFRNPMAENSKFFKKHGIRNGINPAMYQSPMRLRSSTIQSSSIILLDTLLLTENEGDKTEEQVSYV
Description: as §1

[5] = Metabolic stability in mouse liver microsomes (MLM); assay type: in vitro ADME; details: NADPH; for half-life at 1 μM: mouse, pooled mouse liver microsomes, pH 7.4, MLM (CD-1)
Excerpt: MLM Stability Pooled MLM from CD-1 mice (BIOIVT M00501) were used.

[6] = Metabolic stability in rat liver microsomes (RLM); assay type: in vitro ADME; details: for half-life at 1 μM: both sexes, rat, pooled rat liver microsomes, pH 7.4, NADPH
[7] = target: T1, 5-HT2A receptor (Homo sapiens (Human), UniProt P28223); assay type: cell-based; details: Ca^2+ flux, HEK293
Description: as §1

[8] = target: T1, 5-HT2A receptor; assay type: cell-based; details: beta-arrestin recruitment
Description: The degree of arrestin bias varied substantially across the other compounds tested as well.
Arrestin Functional Assay at 5-HT2A. Recruitment of beta-arrestin was determined using a PathHunter assay at Eurofins DiscoverX (Fremont, CA) according to their standard protocols. PathHunter GPCR beta-arrestin assays take advantage of DiscoverX's proprietary Enzyme Fragment Complementation technology. The GPCR is fused in frame with a small enzyme donor fragment ProLink™ (PK) and co-expressed in cells stably expressing a fusion protein of beta-arrestin and the larger, N-terminal deletion mutant of beta-galactosidase. Activation of the GPCR (5-HT2A receptor in this case) stimulates binding of beta-arrestin to the PK-tagged GPCR and forces complementation of the two enzyme fragments, resulting in the formation of an active beta-galactosidase enzyme. This interaction leads to an increase in enzyme activity that can be measured using chemiluminescent PathHunter Detection Reagents. Briefly, PathHunter cells expressing 5-HT2A receptors were seeded in a volume of 20 μL into 384-well plates and incubated at 37° C. for the appropriate time prior to testing. […] Plates were then imaged on a microplate reader and the agonist activity was calculated using the following formula: % Activity=100%×(mean RLU of test sample−mean RLU of vehicle control)/(mean MAX control ligand−mean RLU of vehicle control), where RLU=relative light units.

[9] = tested on: C57BL/6 mice; assay: Mouse head twitch response (HTR) assay; assay type: in vivo; details: mouse HTR, SC; for # HTR at Most Efficacious Dose / Emax (95% CI): 20 min observation; for Emax (95% CI): curve fit
Description: Agonists of the 5-HT2A receptor are well known to induce this effect in rodents and the potency of this HTR is correlated with hallucinogenic potency in humans.
Animals. Adult male C57BL/6 mice, aged 6-8 weeks (body weight 20-25 g) were used in this experiment. Animals were housed under controlled temperatures and 12-hour light/dark cycles (lights on between 07:00-19:00 h), with ad libitum food and water. This study was carried out in strict accordance with the requirements of the Committee for the Purpose of Control and Supervision of Experiments on Animals (CPCSEA), India. All efforts were made to minimize suffering.
Drugs and Drug Administration. Compound 1 was synthesized as described above. It was administered subcutaneously (SC) dissolved in saline vehicle at a volume of 10 mL/kg. Five doses were tested, with n=6 animals/group. Doses were calculated on the basis of the freebase.
Procedure. Mice were administered one dose of the drug and immediately placed into a small open field for behavioral observation. Animals were observed continuously for 20 mins and the number of head twitches (HTs) were counted by an observer blind to the treatment condition.
Statistical Analysis. The data points shown are the mean±standard error of the mean (SEM). Analysis was performed using GraphPad Prism 6. Curves were fit using a non-linear gaussian distribution to calculate ED50 and Emax values.
Additional disclosed compounds were tested in the mouse head twitch response (HTR) assay according to the procedure described in Example 34. […] Lastly, compounds with much larger benzyl and phenethyl substituents on the amine nitrogen (e.g., 10 and 11) were low efficacy in this assay, consistent with their lower maximal efficacy in the arrestin functional assay (see Example 32).

[10] = target: human 5-HT2C receptor (Homo sapiens (Human), UniProt P28335); assay type: cell-based
Chain of human 5-HT2C receptor (P28335 33-458 limits assumed): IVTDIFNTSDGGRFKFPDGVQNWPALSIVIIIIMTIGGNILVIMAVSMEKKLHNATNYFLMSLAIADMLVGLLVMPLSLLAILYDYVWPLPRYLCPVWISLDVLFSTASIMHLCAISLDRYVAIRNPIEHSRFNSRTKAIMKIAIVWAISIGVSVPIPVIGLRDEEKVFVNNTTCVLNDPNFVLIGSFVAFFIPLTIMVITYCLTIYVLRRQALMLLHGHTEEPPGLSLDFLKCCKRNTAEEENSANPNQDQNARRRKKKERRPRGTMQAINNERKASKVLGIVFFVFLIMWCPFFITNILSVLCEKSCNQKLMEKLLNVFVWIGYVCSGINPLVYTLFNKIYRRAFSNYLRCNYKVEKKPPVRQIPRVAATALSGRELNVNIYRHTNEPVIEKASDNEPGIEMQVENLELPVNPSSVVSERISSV

Chain of 5-HT1B receptor (P28222 whole entry, looked up): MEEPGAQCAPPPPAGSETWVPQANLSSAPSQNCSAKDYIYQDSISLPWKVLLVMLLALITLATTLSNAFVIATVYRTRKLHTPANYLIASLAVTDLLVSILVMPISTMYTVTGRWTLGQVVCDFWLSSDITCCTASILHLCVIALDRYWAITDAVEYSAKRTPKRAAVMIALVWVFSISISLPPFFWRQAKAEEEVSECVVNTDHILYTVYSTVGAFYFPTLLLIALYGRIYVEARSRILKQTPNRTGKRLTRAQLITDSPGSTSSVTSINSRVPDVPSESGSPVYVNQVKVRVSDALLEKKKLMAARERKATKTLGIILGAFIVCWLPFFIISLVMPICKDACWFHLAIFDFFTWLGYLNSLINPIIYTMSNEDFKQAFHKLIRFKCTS

## CCN(CC)C(=O)[C@@H]1C=C2c3cccc4[nH]cc(c34)C[C@H]2N(Cc2cccc(OC)c2)C1 [Compound 18, (6aR,9R)-N,N-diethyl-7-(3-methoxybenzyl)-4,6,6a,7,8,9-hexahydroindolo[4,3-fg]quinoline-9-carboxamide]
[1]
  5-HT1B % Act @ Max Dose: 83.31%
[2]
  5-HT1A % Act @ Max Dose: 28.93%
[3]
  half-life at 1 μM: 13.6 min
[4]
  5-HT2B % Act @ Max Dose: 4.69%
[5]
  half-life at 1 μM: 2.6 min
[6]
  half-life at 1 μM: 5.3 min
[7]
  5-HT2A % Act @ Max Dose: 61.09%

## CCN(CC)C(=O)[C@@H]1C=C2c3cccc4[nH]cc(c34)C[C@H]2N(CCc2ccc(OC)cc2)C1 [Compound 21, (6aR,9R)-N,N-diethyl-7-(4-methoxyphenethyl)-4,6,6a,7,8,9-hexahydroindolo[4,3-fg]quinoline-9-carboxamide]
[1]
  5-HT1B % Act @ Max Dose: 79.13%
[2]
  5-HT1A % Act @ Max Dose: 8.2%
[3]
  half-life at 1 μM: 3.8 min
[4]
  5-HT2B % Act @ Max Dose: 1.73%
[5]
  half-life at 1 μM: 1.9 min
[6]
  half-life at 1 μM: 4.3 min
[7]
  5-HT2A % Act @ Max Dose: 51.23%

## CCN(CC)C(=O)[C@@H]1C=C2c3cccc4[nH]cc(c34)C[C@H]2N(Cc2ccc(OC)cc2)C1 [Compound 19, (6aR,9R)-N,N-diethyl-7-(4-methoxybenzyl)-4,6,6a,7,8,9-hexahydroindolo[4,3-fg]quinoline-9-carboxamide]
[1]
  5-HT1B % Act @ Max Dose: 71.08%
[2]
  5-HT1A % Act @ Max Dose: −0.65%
[3]
  half-life at 1 μM: 16.8 min
[4]
  5-HT2B % Act @ Max Dose: 2.44%
[5]
  half-life at 1 μM: 7.2 min
[6]
  half-life at 1 μM: 10 min
[7]
  5-HT2A % Act @ Max Dose: 70.54%

## CCC[C@@H](C)NC(=O)[C@@H]1C=C2c3cccc4[nH]cc(c34)C[C@H]2N(CCC)C1 [Compound 7, (6aR,9R)-N-((R)-pentan-2-yl)-7-propyl-4,6,6a,7,8,9-hexahydroindolo[4,3-fg]quinoline-9-carboxamide]
[2]
  5-HT1A % Act @ Max Dose: 107.16%
[8]
  5-HT2A Arrestin % Act @ Max Dose: 110.2%
  agonist type in the 5-HT2A arrestin recruitment assay, in words: full agonists
[9]
  Most Efficacious Dose: (1 mg/kg)
  # HTR at Most Efficacious Dose: 16.667
  Emax (95% CI): 720.4
[3]
  half-life at 1 μM: 1.65 min
[4]
  5-HT2B % Act @ Max Dose: 94.75%
[10]; Ca^2+ flux
  5-HT2C % Act @ Max Dose: 114.78%
[5]
  half-life at 1 μM: 0.541 min
[6]
  half-life at 1 μM: 1.61 min
[7]
  5-HT2A % Act @ Max Dose: 94.52%

## CC[C@@H](C)NC(=O)[C@@H]1C=C2c3cccc4[nH]cc(c34)C[C@H]2N(C)C1 [Int8, (6aR,9R)-N-((R)-sec-butyl)-7-methyl-4,6,6a,7,8,9-hexahydroindolo[4,3-fg]quinoline-9-carboxamide]
[2]
  5-HT1A % Act @ Max Dose: 90.25%
[8]
  5-HT2A Arrestin % Act @ Max Dose: 46.06%
  agonist type in the 5-HT2A arrestin recruitment assay, in words: partial agonists
[9]
  Most Efficacious Dose: (1 mg/kg)
  # HTR at Most Efficacious Dose: 13.5
  Emax (95% CI): 14.34
[3]
  half-life at 1 μM: 64.9 min
[4]
  5-HT2B % Act @ Max Dose: 17.7%
[10]; Ca^2+ flux
  5-HT2C % Act @ Max Dose: 98.245%
[5]
  half-life at 1 μM: 39.9 min
[6]
  half-life at 1 μM: 99.5 min
[7]
  5-HT2A % Act @ Max Dose: 96.25%

## CCN(CC)C(=O)[C@@H]1C=C2c3cccc4[nH]cc(c34)C[C@H]2N(Cc2ccccc2O)C1 [Compound 16, (6aR,9R)-N,N-diethyl-7-(2-hydroxybenzyl)-4,6,6a,7,8,9-hexahydroindolo[4,3-fg]quinoline-9-carboxamide]
[1]
  5-HT1B % Act @ Max Dose: 90.1%
[2]
  5-HT1A % Act @ Max Dose: 22.29%
[3]
  half-life at 1 μM: 4.9 min
[4]
  5-HT2B % Act @ Max Dose: 26.497%
[5]
  half-life at 1 μM: 1.3 min
[6]
  half-life at 1 μM: 2.2 min
[7]
  5-HT2A % Act @ Max Dose: 62.05%

## CC[C@@H](C)NC(=O)[C@@H]1C=C2c3cccc4[nH]cc(c34)C[C@H]2N(CC)C1 [Compound 5]
[2]
  5-HT1A % Act @ Max Dose: 107.87%
[8]
  5-HT2A Arrestin % Act @ Max Dose: 105.72%
  agonist type in the 5-HT2A arrestin recruitment assay, in words: full agonists
[9]
  Most Efficacious Dose: (0.32 mg/kg)
  # HTR at Most Efficacious Dose: 17.667
  Emax (95% CI): 15.22
[3]; 1 μM, NADPH
  Clint: 62.3 µL/min/mg
  t1/2: 22.2 min
[4]
  5-HT2B % Act @ Max Dose: 84.77%
[10]
  5-HT2C % Act @ Max Dose: 114.5%
[5]; MLM (CD-1), 1 μM
  Clint: 170.4 µL/min/mg
  t1/2: 8.1 min
[6]; 1 μM, NADPH
  Clint: 72.0 µL/min/mg
  t1/2: 19.3 min
[7]
  5-HT2A % Act @ Max Dose: 102.81%

## CCN(CC)C(=O)[C@@H]1C=C2c3cccc4[nH]cc(c34)C[C@H]2N(Cc2ccccn2)C1 [Compound 22, (6aR,9R)-N,N-diethyl-7-(pyridin-2-ylmethyl)-4,6,6a,7,8,9-hexahydroindolo[4,3-fg]quinoline-9-carboxamide]
[1]
  5-HT1B % Act @ Max Dose: 89.15%
[2]
  5-HT1A % Act @ Max Dose: 57.33%
[3]
  half-life at 1 μM: 23.8 min
[4]
  5-HT2B % Act @ Max Dose: 7.74%
[5]
  half-life at 1 μM: 9.2 min
[6]
  half-life at 1 μM: 13.2 min
[7]
  5-HT2A % Act @ Max Dose: 64.47%

## CCN(CC)C(=O)[C@@H]1C=C2c3cccc4[nH]cc(c34)C[C@H]2N(CCc2cccc(OC)c2)C1 [Compound 20, (6aR,9R)-N,N-diethyl-7-(3-methoxyphenethyl)-4,6,6a,7,8,9-hexahydroindolo[4,3-fg]quinoline-9-carboxamide]
[1]
  5-HT1B % Act @ Max Dose: 34.59%
[2]
  5-HT1A % Act @ Max Dose: 3.85%
[3]
  half-life at 1 μM: 2.1 min
[4]
  5-HT2B % Act @ Max Dose: 3.60%
[5]
  half-life at 1 μM: 0.9 min
[6]
  half-life at 1 μM: 1.2 min
[7]
  5-HT2A % Act @ Max Dose: 77.19%

## CCN(CC)C(=O)[C@@H]1C=C2c3cccc4[nH]cc(c34)C[C@H]2N(CCc2ccccn2)C1 [Compound 23, (6aR,9R)-N,N-diethyl-7-(2-(pyridin-2-yl)ethyl)-4,6,6a,7,8,9-hexahydroindolo[4,3-fg]quinoline-9-carboxamide]
[1]
  5-HT1B % Act @ Max Dose: 83.68%
[2]
  5-HT1A % Act @ Max Dose: 46.19%
[3]
  half-life at 1 μM: 7.2 min
[4]
  5-HT2B % Act @ Max Dose: 12.50%
[5]
  half-life at 1 μM: 1.8 min
[6]
  half-life at 1 μM: 4.2 min
[7]
  5-HT2A % Act @ Max Dose: 85.397%

Source: US20240368151A1, “NOVEL ERGOLINES AND METHODS OF TREATING MOOD DISORDERS” (priority 2021, published 2024)
